The text below walks through data of article PMC9820167, “Design and Synthesis of Conformationally Flexible Scaffold as Bitopic Ligands for Potent D3-Selective Antagonists” (International Journal of Molecular Sciences, 2022).

One assay deals with T1, human D2 receptors (Homo sapiens, UniProt P14416).
T1 construct: expressed in transfected cells; host or cells: HEK293
Put plainly: Radioligand binding assay with [125I]IABN, D2 receptor. The following applies: [125I]IABN, D2 receptors expressed in HEK cells; mean ± SEM, three experiments; HCl salts; read-out: Ki ± SEM (nM) D2. On the procedure:
Two different assays were used to evaluate the properties of the analogs described above. The receptor binding affinity was measured by radioligand binding assays using [^125I]IABN with D2 or D3 receptors highly expressed HEK293 cells. The functional activity of the analogs was determined using a β-arrestin recruitment assay. […] The results of the antagonist mode assay are reported as IC50 values.
Ki values for D2 and D3 receptors were measured using [^125I]IABN in human D2 and D3 receptors expressed in HEK cells, respectively. A filtration binding assay was used to characterize membrane-associated receptor binding properties. The details for the procedures were described in the literature.

The target of a further assay is Histamine H1 (Homo sapiens, UniProt P35367). Put plainly: PDSP binding screen.
A further assay addresses Adrenergic beta2 (Homo sapiens, UniProt P07550). Put plainly: PDSP binding screen.
The next assay addresses T2, Dopamine D4 (Homo sapiens, UniProt P21917).
T2 sequence (P21917 1-419): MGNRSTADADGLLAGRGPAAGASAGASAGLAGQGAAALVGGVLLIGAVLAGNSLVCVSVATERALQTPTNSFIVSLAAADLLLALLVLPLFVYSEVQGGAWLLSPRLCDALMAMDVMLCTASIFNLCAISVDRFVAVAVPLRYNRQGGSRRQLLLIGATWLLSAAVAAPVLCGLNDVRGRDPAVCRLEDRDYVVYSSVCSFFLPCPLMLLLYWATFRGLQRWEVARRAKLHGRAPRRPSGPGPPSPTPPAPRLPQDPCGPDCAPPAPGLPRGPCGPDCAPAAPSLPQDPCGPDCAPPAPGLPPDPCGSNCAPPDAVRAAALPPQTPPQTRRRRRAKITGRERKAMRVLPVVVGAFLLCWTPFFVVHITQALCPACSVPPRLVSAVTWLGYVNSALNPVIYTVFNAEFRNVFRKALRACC
In words: PDSP binding screen.

The target of another assay is T3, Adrenergic alpha2B (Homo sapiens, UniProt P18089).
T3 sequence (P18089 1-450): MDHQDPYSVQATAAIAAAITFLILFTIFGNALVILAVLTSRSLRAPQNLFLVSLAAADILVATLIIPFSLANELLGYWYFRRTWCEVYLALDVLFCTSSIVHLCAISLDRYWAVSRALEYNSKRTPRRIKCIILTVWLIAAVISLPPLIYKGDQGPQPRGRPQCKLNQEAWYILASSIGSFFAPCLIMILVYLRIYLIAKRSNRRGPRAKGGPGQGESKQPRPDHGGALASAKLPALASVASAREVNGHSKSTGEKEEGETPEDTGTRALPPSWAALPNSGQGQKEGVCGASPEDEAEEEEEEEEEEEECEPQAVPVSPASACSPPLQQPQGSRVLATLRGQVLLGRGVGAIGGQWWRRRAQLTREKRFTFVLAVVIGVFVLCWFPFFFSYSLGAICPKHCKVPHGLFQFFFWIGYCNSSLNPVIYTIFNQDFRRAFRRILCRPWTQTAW
Put plainly: PDSP binding screen.

The target in the next assay is T4, Adrenergic alpha1A (Homo sapiens, UniProt P35348).
T4 sequence (P35348 1-466): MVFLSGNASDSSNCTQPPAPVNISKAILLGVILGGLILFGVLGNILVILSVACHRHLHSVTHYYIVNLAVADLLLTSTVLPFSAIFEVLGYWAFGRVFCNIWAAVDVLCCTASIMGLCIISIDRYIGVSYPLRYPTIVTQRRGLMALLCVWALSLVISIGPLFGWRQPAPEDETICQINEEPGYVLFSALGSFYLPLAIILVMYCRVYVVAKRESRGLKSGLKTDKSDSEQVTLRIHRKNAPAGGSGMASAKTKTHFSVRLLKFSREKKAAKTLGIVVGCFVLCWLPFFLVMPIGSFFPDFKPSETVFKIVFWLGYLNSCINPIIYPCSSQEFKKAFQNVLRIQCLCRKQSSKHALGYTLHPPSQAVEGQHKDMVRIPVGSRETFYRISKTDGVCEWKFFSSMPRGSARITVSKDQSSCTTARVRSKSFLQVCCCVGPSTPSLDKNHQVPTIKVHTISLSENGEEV
Put plainly: PDSP binding screen. To be noted: read-out: Ki (nM) or % inhibition at 10 µM: alpha1A.

The target in another assay is Dopamine D2 (Homo sapiens, UniProt P14416). Put plainly: PDSP binding screen.
The next assay addresses T5, Serotonin 5-HT1A (Homo sapiens, UniProt P08908).
T5 sequence (P08908 1-422): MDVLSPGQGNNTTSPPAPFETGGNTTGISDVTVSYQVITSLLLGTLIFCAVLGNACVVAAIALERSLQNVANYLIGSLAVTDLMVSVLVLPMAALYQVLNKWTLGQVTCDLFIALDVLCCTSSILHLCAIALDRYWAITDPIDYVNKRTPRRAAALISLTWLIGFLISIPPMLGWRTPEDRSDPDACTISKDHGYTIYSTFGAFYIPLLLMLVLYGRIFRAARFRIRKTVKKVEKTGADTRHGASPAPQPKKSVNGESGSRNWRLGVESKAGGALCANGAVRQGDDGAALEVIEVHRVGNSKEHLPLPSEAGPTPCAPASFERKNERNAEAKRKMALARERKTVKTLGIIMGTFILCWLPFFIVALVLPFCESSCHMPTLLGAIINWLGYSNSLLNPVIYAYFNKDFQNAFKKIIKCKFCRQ
Put plainly: PDSP binding screen.

Another assay has as its target Adrenergic beta3 (Homo sapiens, UniProt P13945). Put plainly: PDSP binding screen.
In a further assay the target is T6, Serotonin 5-HT2C (Homo sapiens, UniProt P28335).
T6 sequence (P28335 33-458): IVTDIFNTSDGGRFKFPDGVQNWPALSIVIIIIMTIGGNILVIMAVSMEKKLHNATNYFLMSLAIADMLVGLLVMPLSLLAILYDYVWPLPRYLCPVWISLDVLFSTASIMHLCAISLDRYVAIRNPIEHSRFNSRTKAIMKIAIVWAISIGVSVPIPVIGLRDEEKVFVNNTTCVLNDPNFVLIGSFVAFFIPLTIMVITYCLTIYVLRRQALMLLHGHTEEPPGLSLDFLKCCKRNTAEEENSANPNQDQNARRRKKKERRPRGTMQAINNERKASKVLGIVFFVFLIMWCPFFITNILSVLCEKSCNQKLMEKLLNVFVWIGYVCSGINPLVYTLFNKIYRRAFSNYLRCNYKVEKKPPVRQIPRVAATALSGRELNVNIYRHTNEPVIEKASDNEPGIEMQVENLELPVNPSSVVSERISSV
Put plainly: PDSP binding screen.

Chain of Adrenergic beta2 (P07550 whole entry): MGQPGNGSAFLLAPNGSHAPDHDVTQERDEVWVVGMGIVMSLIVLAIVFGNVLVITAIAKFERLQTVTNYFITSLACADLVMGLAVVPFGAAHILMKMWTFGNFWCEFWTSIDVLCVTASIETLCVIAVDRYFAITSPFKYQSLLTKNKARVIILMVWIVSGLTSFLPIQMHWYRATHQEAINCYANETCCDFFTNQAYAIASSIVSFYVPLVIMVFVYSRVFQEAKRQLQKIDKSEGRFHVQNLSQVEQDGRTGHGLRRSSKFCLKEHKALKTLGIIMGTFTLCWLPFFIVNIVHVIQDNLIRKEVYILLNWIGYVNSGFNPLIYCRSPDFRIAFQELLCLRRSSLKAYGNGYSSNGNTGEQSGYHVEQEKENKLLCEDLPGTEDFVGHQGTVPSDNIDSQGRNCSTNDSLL
Chain of Dopamine D2 (P14416 whole entry): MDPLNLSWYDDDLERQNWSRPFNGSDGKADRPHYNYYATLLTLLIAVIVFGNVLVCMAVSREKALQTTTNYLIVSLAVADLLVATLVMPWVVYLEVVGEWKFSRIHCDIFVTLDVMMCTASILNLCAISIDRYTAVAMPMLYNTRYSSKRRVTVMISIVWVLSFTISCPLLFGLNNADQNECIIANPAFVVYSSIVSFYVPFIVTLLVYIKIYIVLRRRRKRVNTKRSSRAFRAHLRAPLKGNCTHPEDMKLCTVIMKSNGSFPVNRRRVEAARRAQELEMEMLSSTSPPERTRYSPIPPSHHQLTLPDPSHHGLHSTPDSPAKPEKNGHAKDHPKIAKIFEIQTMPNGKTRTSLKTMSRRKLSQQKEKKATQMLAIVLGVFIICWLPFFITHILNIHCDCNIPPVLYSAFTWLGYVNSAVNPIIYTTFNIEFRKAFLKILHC
T1 sequence (P14416 whole entry): as above
Chain of Histamine H1 (P35367 whole entry): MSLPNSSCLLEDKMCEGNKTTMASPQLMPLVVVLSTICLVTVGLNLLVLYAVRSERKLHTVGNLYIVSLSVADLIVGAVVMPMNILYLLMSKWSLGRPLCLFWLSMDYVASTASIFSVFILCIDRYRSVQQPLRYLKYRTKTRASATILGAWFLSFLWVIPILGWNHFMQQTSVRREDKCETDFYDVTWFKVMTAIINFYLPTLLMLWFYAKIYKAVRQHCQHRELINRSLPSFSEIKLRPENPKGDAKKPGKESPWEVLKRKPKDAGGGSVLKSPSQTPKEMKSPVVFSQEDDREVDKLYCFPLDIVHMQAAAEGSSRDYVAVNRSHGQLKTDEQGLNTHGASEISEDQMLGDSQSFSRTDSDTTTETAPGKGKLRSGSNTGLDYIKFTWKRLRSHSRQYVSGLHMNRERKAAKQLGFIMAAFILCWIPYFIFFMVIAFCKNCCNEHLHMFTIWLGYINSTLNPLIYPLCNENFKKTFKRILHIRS
Chain of Adrenergic beta3 (P13945 whole entry): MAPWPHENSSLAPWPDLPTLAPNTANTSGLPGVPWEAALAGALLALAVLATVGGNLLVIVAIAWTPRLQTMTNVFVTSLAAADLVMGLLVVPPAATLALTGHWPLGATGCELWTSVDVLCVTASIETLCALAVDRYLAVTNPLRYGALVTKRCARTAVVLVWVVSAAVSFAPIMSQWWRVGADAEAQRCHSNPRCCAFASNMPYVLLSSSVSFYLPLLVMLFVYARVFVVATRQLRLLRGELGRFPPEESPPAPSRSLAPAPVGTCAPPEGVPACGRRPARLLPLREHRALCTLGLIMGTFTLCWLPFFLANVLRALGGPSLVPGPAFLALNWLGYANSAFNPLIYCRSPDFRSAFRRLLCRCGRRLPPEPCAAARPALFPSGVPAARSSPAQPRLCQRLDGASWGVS

Turning to `CCN(CCCNC(=O)c1cc2ccccc2n1C)CCNC(=O)c1cc(Br)cc(OC)c1OC` [21j, N-(3-((2-(5-Bromo-2,3-dimethoxybenzamido)ethyl)(ethyl)amino)propyl)-1-methyl-1H-indole-2-carboxamide], the Ki on human D2 receptors was 192 ± 22 nM; on Histamine H1, 1.47 µM; at Adrenergic beta2, over 10 µM; at Dopamine D4, 0.878 µM; at Adrenergic alpha2B, 0.646 µM; at Dopamine D2, 0.076 µM. The figures for the Ki on Serotonin 5-HT1A, at Adrenergic beta3 and at Serotonin 5-HT2C were 0.961 µM, 4.36 µM and 5.06 µM, respectively. Besides, on Adrenergic alpha1A, the inhibition at 10 µM is under 50%.
